Test results published in US9012448B2, “1,2,4-triazolo[4,3-a]pyridine derivatives and their use as positive allosteric modulators of MGLUR2 receptors” (Janssen Pharmaceuticals, Inc., priority 2010, dated 2015).

Columns and labels:
human mGluR2 receptor = target: T1, human mGluR2 receptor (Homo sapiens, UniProt Q14416); assay: [35S]GTPγS binding assay, hmGluR2 PAM (membranes from transfected CHO cells, glutamate at EC20); format: biochemical; settings: for EC50: in presence of mGluR2 agonist glutamate at a predetermined EC20 concentration, pEC50 = -log EC50 (M), at least 8 concentrations; for GTPγS - hmGluR2 PAM Emax / Emax: relative maximal effect (maximal % effect relative to the control glutamate response), glutamate at EC20
T1 construct: expressed in transfected cells; host or cells: CHO cells (membrane preparation)
T1 sequence (Q14416 19-872): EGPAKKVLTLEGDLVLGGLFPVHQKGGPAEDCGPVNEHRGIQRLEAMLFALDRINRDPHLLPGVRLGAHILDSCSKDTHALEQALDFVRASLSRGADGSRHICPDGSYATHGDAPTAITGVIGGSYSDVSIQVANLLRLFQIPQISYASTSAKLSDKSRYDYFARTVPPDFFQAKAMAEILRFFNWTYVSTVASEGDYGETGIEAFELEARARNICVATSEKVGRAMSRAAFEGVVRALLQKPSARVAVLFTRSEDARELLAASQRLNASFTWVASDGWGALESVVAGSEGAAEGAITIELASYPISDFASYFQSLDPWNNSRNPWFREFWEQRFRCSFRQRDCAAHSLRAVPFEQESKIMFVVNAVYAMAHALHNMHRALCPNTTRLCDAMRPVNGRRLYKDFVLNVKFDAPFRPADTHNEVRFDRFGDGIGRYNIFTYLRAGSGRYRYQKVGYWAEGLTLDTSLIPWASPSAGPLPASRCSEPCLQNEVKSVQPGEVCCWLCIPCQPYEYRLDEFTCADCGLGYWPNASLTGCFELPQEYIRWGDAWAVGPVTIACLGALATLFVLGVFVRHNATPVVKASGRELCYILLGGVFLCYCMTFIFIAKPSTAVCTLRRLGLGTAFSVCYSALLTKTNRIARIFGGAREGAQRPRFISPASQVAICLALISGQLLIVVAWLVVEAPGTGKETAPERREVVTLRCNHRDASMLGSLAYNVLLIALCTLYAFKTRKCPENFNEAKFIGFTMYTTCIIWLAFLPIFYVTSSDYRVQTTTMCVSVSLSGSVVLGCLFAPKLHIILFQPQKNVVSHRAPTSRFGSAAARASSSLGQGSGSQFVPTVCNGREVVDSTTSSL
Text: The compounds provided in the present invention are positive allosteric modulators of mGluR2. These compounds appear to potentiate glutamate responses by binding to an allosteric site other than the glutamate binding site. The response of mGluR2 to a concentration of glutamate is increased when compounds of Formula (I) are present. Compounds of Formula (I) are expected to have their effect substantially at mGluR2 by virtue of their ability to enhance the function of the receptor. The effects of positive allosteric modulators tested at mGluR2 using the [^35S]GTPγS binding assay method described below and which is suitable for the identification of such compounds, and more particularly the compounds according to Formula (I), are shown in Table 3.
The [^35S]GTPγS binding assay is a functional membrane-based assay used to study G-protein coupled receptor (GPCR) function whereby incorporation of a non-hydrolysable form of GTP, [^35S]GTPγS (guanosine 5′-triphosphate, labelled with […] ^35S), is measured. The G-protein a subunit catalyzes the exchange of guanosine 5′-diphosphate (GDP) by guanosine triphosphate (GTP) and on activation of the GPCR by an agonist, [^35S]GTPγS, becomes incorporated and cannot be cleaved to continue the exchange cycle (Harper (1998) Current Protocols in Pharmacology 2.6.1-10, John Wiley & Sons, Inc.). […] Here we describe the use of the [^35S]GTPγS binding assay using membranes from cells transfected with the human mGluR2 receptor and adapted from Schaffhauser et al. ((2003) Molecular Pharmacology 4:798-810) for the detection of the positive allosteric modulation (PAM) properties of the compounds of this invention.
CHO-cells were cultured to pre-confluence and stimulated with 5 mM butyrate for 24 h. Cells were then collected by scraping in PBS and cell suspension was centrifuged (10 min at 4000 RPM in benchtop centrifuge). Supernatant was discarded and pellet gently resuspended in 50 mM Tris-HCl, pH 7.4 by mixing with a vortex and pipetting up and down. The suspension was centrifuged at 16,000 RPM (Sorvall RC-5C plus rotor SS-34) for 10 minutes and the supernatant discarded. The pellet was homogenized in 5 mM Tris-HCl, pH 7.4 using an ultra-turrax homogenizer and centrifuged again (18,000 RPM, 20 min, 4° C.). The final pellet was resuspended in 50 mM Tris-HCl, pH 7.4 and stored at −80° C. in appropriate aliquots before use. Protein concentration was determined by the Bradford method (Bio-Rad, USA) with bovine serum albumin as standard.
Measurement of mGluR2 positive allosteric modulatory activity of test compounds was performed as follows. Test compounds and glutamate were diluted in assay buffer containing 10 mM HEPES acid, 10 mM HEPES salt, pH 7.4, 100 mM NaCl, 3 mM MgCl2 and 10 μM GDP. Human mGlu2 receptor-containing membranes were thawed on ice and diluted in assay buffer supplemented with 14 μg/ml saponin. Membranes were pre-incubated with compound alone or together with a predefined (˜EC20) concentration of glutamate (PAM assay) for 30 min at 30° C. After addition of [^35S]GTPγS (f.c. 0.1 nM), assay mixtures were shaken briefly and further incubated to allow [^35S]GTPγS incorporation on activation (30 minutes, 30° C.). Final assay mixtures contained 7 μg of membrane protein in 10 mM HEPES acid, 10 mM HEPES salt, pH 7.4, 100 mM NaCl, 3 mM MgCl2, 10 μM GDP and 10 μg/ml saponin. Total reaction volume was 200 μl. Reactions were terminated by rapid filtration through Unifilter-96 GF/B plates (Perkin Elmer, Massachusetts, USA) using a 96-well filtermate universal harvester. Filters were washed 6 times with ice-cold 10 mM NaH2PO4/10 mM Na2HPO4, pH 7.4. Filters were then air-dried, and 40 μl of liquid scintillation cocktail (Microscint-O) was added to each well. Membrane-bound radioactivity was counted in a Microplate Scintillation and Luminescence Counter from Perkin Elmer. […]

Row | Compound | EC50 (human mGluR2 receptor) [M] | GTPγS - hmGluR2 PAM Emax (human mGluR2 receptor) [%] | Emax (human mGluR2 receptor) [%] | melting point [°C]
1 | CC1(c2ccccc2F)COCCN1Cc1ccn2c(CC3CC3)nnc2c1C(F)(F)F (single isomer, unassigned) [Compound 4a, 3-(Cyclopropylmethyl)-7-{[(3*R)-3-(2-fluorophenyl)-3-methylmorpholin-4-yl]methyl}-8-(trifluoromethyl)[1,2,4]triazolo[4,3-a]pyridine] | 1.82e-07 | 108 |  | 
2 | CC1(c2ccccc2F)COCCN1Cc1ccn2c(CC3CC3)nnc2c1C(F)(F)F (single isomer, unassigned) [Compound 4b, 3-(Cyclopropylmethyl)-7-{[(3*S)-3-(2-fluorophenyl)-3-methylmorpholin-4-yl]methyl}-8-(trifluoromethyl)[1,2,4]triazolo[4,3-a]pyridine] | 1.95e-07 | 52 |  | 
3 | CC1(c2ccc(F)cc2F)COCCN1Cc1ccn2c(CC3CC3)nnc2c1C(F)(F)F (single isomer, unassigned) [Compound 5a, 3-(Cyclopropylmethyl)-7-{[(3*R)-3-(2,4-difluorophenyl)-3-methylmorpholin-4-yl]methyl}-8-(trifluoromethyl)[1,2,4]triazolo[4,3-a]pyridine] | 2e-07 | 101 |  | 
4 | CC1(c2ccc(F)cc2F)COCCN1Cc1ccn2c(CC3CC3)nnc2c1C(F)(F)F (single isomer, unassigned) [Compound 5b, 3-(Cyclopropylmethyl)-7-{[(3*S)-3-(2,4-difluorophenyl)-3-methylmorpholin-4-yl]methyl}-8-(trifluoromethyl)[1,2,4]triazolo[4,3-a]pyridine] | 1.38e-07 | 126 |  | 
5 | FC(F)(F)c1c(CN2CCOC[C@H]2c2ccccc2)ccn2c(CC3CC3)nnc12 [Compound 1, 3-(Cyclopropylmethyl)-7-[[(3R)-3-phenyl-4-morpholinyl]methyl]-8-(trifluoromethyl)-1,2,4-triazolo[4,3-c]pyridine] | 1.7e-07 |  | 238 | 69.2
6 | FC(F)(F)c1c(CN2CCOC[C@@H]2c2ccccc2)ccn2c(CC3CC3)nnc12 [Compound 2, 3-(Cyclopropylmethyl)-7-[[(3S)-3-phenyl-4-morpholinyl]methyl]-8-(trifluoromethyl)-1,2,4-triazolo[4,3-c]pyridine] | 4.27e-07 |  | 136 | 
